Key:
[1] = target: Myosin light chain kinase family member 4 (Homo sapiens) (UniProt Q86YV6); conditions: Compound concentration 1000.0 nM
[2] = system: Receptor-type tyrosine-protein kinase FLT3 (Homo sapiens), P36888 [N841I]; conditions: Compound concentration 1000.0 nM
[3] = target: Protein kinase C epsilon type (Homo sapiens) (UniProt Q02156); conditions: Compound concentration 1000.0 nM
[4] = target: Ephrin type-B receptor 2 (Homo sapiens) (UniProt P29323); conditions: Compound concentration 1000.0 nM
[5] = target: Dual specificity protein kinase CLK3 (Homo sapiens) (UniProt P49761); conditions: Compound concentration 1000.0 nM
[6] = target: Activin receptor type-1B (Homo sapiens) (UniProt P36896); conditions: Compound concentration 1000.0 nM
[7] = target: Tyrosine-protein kinase TXK (Homo sapiens) (UniProt P42681); conditions: Compound concentration 1000.0 nM
[8] = target: Alpha-1B adrenergic receptor (Homo sapiens) (UniProt P35368); conditions: Compound concentration 10.0 uM
[9] = target: 5-hydroxytryptamine receptor 6 (Homo sapiens) (UniProt P50406); conditions: Compound concentration 10.0 uM
[10] = target: Dual specificity mitogen-activated protein kinase kinase 5 (Homo sapiens) (UniProt Q13163); conditions: Compound concentration 1000.0 nM
[11] = target: Tyrosine-protein kinase Tec (Homo sapiens) (UniProt P42680); conditions: Compound concentration 1000.0 nM
[12] = target: Tyrosine-protein kinase receptor Tie-1 (Homo sapiens) (UniProt P35590); conditions: Compound concentration 1000.0 nM
[13] = target: Mitogen-activated protein kinase kinase kinase 11 (Homo sapiens) (UniProt Q16584); conditions: Compound concentration 1000.0 nM
Mitogen-activated protein kinase kinase kinase 11 (Homo sapiens), sequence (Q16584 whole entry, looked up, canonical isoform): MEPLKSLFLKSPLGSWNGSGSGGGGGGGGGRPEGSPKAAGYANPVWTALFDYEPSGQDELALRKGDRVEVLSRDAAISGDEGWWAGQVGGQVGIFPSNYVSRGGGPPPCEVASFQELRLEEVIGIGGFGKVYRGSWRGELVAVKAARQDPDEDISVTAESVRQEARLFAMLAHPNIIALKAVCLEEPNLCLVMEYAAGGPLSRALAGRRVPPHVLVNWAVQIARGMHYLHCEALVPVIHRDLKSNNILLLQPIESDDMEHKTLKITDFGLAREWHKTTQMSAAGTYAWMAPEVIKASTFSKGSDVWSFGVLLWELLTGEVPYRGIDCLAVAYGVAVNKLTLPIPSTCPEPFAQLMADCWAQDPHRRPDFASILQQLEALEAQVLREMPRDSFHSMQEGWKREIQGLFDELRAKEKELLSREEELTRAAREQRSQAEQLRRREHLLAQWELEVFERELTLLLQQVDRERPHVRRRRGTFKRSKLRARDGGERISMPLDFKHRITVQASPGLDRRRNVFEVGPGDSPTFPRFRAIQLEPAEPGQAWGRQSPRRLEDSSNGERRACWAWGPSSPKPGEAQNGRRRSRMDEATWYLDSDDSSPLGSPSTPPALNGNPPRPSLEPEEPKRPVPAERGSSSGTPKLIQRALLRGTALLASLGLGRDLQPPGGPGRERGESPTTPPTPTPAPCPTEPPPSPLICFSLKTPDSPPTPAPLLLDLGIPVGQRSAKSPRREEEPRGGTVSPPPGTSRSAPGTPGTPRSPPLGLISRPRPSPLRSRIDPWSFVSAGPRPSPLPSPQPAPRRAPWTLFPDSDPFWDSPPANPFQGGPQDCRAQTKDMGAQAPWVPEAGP

[14] = system: Phosphatidylinositol 4,5-bisphosphate 3-kinase catalytic subunit alpha isoform (Homo sapiens), P42336 [Q546K]; conditions: Compound concentration 1000.0 nM
Phosphatidylinositol 4,5-bisphosphate 3-kinase catalytic subunit alpha isoform (Homo sapiens), P42336 [Q546K], sequence (P42336 whole entry Q546K, canonical isoform): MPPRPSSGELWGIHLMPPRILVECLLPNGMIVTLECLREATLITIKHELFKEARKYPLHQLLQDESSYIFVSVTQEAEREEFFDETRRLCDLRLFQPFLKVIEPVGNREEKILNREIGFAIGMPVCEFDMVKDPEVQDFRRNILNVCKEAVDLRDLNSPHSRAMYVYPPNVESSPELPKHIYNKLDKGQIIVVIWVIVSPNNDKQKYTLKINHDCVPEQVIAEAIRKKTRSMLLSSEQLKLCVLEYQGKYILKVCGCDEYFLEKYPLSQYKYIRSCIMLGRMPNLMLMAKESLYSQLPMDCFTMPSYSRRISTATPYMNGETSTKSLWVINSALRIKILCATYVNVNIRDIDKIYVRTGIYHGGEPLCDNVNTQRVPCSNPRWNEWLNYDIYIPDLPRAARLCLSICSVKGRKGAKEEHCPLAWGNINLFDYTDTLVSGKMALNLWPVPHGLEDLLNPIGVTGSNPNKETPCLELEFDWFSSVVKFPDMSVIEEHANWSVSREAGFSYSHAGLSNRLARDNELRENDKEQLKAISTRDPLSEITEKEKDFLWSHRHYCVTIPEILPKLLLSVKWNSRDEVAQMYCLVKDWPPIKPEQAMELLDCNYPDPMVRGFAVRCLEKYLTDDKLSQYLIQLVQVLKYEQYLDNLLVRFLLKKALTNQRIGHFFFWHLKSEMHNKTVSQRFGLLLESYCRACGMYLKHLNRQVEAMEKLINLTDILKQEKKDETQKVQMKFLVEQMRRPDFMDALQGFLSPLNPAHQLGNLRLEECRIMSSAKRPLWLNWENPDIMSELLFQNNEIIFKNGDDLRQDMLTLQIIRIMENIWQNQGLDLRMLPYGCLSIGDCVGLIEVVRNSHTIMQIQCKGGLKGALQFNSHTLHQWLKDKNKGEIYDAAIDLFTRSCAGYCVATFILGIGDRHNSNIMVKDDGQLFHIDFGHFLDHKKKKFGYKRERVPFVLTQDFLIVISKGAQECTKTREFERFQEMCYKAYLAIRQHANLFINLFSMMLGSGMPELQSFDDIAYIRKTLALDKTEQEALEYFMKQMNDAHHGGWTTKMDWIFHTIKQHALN

[15] = target: Tyrosine-protein kinase HCK (Homo sapiens) (UniProt P08631); conditions: Compound concentration 1000.0 nM
[16] = target: Ribosomal protein S6 kinase alpha-2 (Homo sapiens) (UniProt Q15349); conditions: Compound concentration 1000.0 nM
[17] = target: Activin receptor type-2A (Homo sapiens) (UniProt P27037); conditions: Compound concentration 1000.0 nM
[18] = target: Citron Rho-interacting kinase (Homo sapiens) (UniProt O14578); conditions: Compound concentration 1000.0 nM
[19] = target: Mitogen-activated protein kinase 13 (Homo sapiens) (UniProt O15264); conditions: Compound concentration 1000.0 nM
[20] = system: Receptor-type tyrosine-protein kinase FLT3 (Homo sapiens), P36888 [UNDEFINED MUTATION]; conditions: Compound concentration 1000.0 nM
[21] = target: GABA-A receptor; anion channel (Rattus norvegicus) (UniProt O09028+P15431+P18506+P18508+P19969+P20236+P23574+P23576+P28471+P28473+P30191+P62813+P63079+P63138+Q91ZM7+Q9ES14); conditions: Compound concentration 10.0 uM
[22] = target: Homeodomain-interacting protein kinase 1 (Homo sapiens) (UniProt Q86Z02); conditions: Compound concentration 1000.0 nM
[23] = target: Serine/threonine-protein kinase Nek4 (Homo sapiens) (UniProt P51957); conditions: Compound concentration 1000.0 nM
[24] = target: Calcium/calmodulin-dependent protein kinase type II subunit delta (Homo sapiens) (UniProt Q13557); conditions: Compound concentration 1000.0 nM
[25] = system: Phosphatidylinositol 4,5-bisphosphate 3-kinase catalytic subunit alpha isoform (Homo sapiens), P42336 [I800L]; conditions: Compound concentration 1000.0 nM
Phosphatidylinositol 4,5-bisphosphate 3-kinase catalytic subunit alpha isoform (Homo sapiens), P42336 [I800L], sequence (P42336 whole entry I800L, canonical isoform): as the sequence (P42336 whole entry Q546K, canonical isoform) above, with K546Q, I800L counted along it

[26] = target: Beta-adrenergic receptor kinase 1 (Homo sapiens) (UniProt P25098); conditions: Compound concentration 1000.0 nM
[27] = target: Myosin light chain kinase 2, skeletal/cardiac muscle (Homo sapiens) (UniProt Q9H1R3); conditions: Compound concentration 1000.0 nM
[28] = target: Cyclin-dependent kinase-like 2 (Homo sapiens) (UniProt Q92772); conditions: Compound concentration 1000.0 nM
[29] = system: Epidermal growth factor receptor (Homo sapiens), P00533 [UNDEFINED MUTATION]; conditions: Compound concentration 1000.0 nM
Epidermal growth factor receptor (Homo sapiens), P00533 [UNDEFINED MUTATION], sequence (P00533 whole entry, looked up, change not shown): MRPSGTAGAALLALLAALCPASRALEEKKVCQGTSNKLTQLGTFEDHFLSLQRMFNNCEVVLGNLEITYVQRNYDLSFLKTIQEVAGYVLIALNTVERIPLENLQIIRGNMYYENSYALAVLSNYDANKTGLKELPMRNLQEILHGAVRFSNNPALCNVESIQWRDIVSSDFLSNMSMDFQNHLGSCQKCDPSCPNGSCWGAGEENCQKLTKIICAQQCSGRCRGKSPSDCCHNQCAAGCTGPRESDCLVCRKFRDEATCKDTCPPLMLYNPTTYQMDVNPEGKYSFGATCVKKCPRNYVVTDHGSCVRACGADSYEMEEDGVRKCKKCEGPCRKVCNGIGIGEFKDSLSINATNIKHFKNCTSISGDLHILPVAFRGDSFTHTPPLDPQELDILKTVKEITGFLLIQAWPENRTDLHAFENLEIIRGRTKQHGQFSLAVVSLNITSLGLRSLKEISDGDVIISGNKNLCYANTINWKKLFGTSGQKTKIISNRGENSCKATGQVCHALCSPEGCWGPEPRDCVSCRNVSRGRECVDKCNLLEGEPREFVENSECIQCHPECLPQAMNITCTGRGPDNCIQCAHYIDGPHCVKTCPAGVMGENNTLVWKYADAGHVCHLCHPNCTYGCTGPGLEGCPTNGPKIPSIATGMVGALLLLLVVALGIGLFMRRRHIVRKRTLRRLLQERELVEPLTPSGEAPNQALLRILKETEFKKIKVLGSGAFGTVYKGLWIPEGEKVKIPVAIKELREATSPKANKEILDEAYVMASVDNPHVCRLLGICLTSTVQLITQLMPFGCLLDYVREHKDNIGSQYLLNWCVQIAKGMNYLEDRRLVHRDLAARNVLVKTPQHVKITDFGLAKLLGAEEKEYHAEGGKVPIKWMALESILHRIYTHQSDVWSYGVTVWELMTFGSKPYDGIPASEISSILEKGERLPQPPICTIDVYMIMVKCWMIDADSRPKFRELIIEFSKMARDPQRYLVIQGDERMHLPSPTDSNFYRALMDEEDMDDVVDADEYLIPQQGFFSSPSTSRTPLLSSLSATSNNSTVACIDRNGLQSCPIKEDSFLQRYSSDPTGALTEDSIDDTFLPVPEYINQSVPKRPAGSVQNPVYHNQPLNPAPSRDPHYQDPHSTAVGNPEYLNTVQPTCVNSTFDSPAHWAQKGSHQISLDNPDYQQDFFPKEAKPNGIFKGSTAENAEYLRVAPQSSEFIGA

[30] = target: Phosphatidylinositol 4-kinase beta (Homo sapiens) (UniProt Q9UBF8); conditions: Compound concentration 1000.0 nM
[31] = target: Serine/threonine-protein kinase PAK 3 (Homo sapiens) (UniProt O75914); conditions: Compound concentration 1000.0 nM
[32] = target: Ephrin type-A receptor 3 (Homo sapiens) (UniProt P29320); conditions: Compound concentration 1000.0 nM
[33] = target: Mitogen-activated protein kinase kinase kinase 12 (Homo sapiens) (UniProt Q12852); conditions: Compound concentration 1000.0 nM
[34] = target: Insulin receptor-related protein (Homo sapiens) (UniProt P14616); conditions: Compound concentration 1000.0 nM
Insulin receptor-related protein (Homo sapiens), sequence (P14616 27-742 limits assumed): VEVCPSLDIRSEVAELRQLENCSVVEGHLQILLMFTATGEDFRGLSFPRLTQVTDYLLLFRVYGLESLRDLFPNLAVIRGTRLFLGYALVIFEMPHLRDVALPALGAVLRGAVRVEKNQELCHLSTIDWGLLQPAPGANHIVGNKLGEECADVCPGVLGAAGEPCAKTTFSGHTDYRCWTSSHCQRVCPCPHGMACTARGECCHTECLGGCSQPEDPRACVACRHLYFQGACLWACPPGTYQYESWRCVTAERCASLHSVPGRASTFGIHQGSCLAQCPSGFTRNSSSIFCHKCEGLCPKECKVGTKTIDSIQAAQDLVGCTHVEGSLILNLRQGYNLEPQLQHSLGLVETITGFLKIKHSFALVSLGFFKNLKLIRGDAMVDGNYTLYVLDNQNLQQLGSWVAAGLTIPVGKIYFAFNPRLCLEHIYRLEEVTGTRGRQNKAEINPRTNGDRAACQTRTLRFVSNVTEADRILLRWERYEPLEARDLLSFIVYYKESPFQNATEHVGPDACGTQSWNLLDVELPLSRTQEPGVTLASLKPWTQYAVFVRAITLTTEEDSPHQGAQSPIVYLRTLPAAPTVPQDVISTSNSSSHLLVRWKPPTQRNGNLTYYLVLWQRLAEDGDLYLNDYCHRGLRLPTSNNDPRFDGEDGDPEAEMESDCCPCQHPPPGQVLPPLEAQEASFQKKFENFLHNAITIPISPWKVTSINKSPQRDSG
Insulin receptor-related protein (Homo sapiens), sequence (P14616 747-1297 limits assumed): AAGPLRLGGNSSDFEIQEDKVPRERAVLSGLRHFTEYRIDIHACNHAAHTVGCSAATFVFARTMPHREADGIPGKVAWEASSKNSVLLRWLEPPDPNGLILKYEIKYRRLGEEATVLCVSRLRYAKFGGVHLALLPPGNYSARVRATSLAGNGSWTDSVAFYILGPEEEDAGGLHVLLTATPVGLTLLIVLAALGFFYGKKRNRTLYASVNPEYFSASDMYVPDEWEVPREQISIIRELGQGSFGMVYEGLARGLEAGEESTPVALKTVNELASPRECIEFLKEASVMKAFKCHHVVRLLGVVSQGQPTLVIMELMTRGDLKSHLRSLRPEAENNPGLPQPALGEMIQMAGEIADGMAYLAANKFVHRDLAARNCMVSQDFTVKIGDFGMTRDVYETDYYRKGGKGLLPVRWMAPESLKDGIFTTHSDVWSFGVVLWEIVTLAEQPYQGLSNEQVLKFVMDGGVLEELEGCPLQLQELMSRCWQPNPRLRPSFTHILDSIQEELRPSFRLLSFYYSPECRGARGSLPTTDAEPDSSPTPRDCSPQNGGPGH

[35] = target: Mitogen-activated protein kinase kinase kinase 13 (Homo sapiens) (UniProt O43283); conditions: Compound concentration 1000.0 nM
[36] = target: Phosphatidylinositol 5-phosphate 4-kinase type-2 gamma (Homo sapiens) (UniProt Q8TBX8); conditions: Compound concentration 1000.0 nM
[37] = target: Mitogen-activated protein kinase kinase kinase 4 (Homo sapiens) (UniProt Q9Y6R4); conditions: Compound concentration 1000.0 nM
[38] = target: Alpha-1A adrenergic receptor (Homo sapiens) (UniProt P35348); conditions: Compound concentration 10.0 uM
[39] = target: Megakaryocyte-associated tyrosine-protein kinase (Homo sapiens) (UniProt P42679); conditions: Compound concentration 1000.0 nM
Megakaryocyte-associated tyrosine-protein kinase (Homo sapiens), sequence (P42679 whole entry): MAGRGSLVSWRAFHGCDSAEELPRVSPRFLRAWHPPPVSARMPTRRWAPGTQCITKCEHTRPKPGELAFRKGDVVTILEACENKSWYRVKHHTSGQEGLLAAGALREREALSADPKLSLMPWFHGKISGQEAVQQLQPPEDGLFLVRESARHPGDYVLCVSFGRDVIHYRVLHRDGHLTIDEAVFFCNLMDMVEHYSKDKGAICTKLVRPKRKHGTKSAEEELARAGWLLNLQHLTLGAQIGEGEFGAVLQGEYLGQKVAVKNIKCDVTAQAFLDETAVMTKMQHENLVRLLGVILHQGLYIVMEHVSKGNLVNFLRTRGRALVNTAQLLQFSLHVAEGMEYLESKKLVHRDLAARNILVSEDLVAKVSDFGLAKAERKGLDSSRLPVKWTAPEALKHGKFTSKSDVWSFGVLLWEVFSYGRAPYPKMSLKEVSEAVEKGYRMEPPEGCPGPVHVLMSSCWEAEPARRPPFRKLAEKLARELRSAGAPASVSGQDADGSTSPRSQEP

[40] = target: STE20/SPS1-related proline-alanine-rich protein kinase (Homo sapiens) (UniProt Q9UEW8); conditions: Compound concentration 1000.0 nM
[41] = system: Tyrosine-protein kinase ABL1 (Homo sapiens), P00519 [H396P]; conditions: Compound concentration 1000.0 nM
[42] = target: Serine/threonine-protein kinase Nek2 (Homo sapiens) (UniProt P51955); conditions: Compound concentration 1000.0 nM
[43] = target: Mitogen-activated protein kinase kinase kinase kinase 2 (Homo sapiens) (UniProt Q12851); conditions: Compound concentration 1000.0 nM

## Cc1c(NC(=O)c2cc(C(N)=O)nc3cc(F)ccc23)c(C(F)(F)F)nn1Cc1ccc(C(C)(C)C)cc1 [BAY-588]
[1]
  residual activity: 100%
[2]
  residual activity: 52%
[3]
  residual activity: 67%
[4]
  residual activity: 83%
[5]
  residual activity: 100%
[6]
  residual activity: 80%
[7]
  residual activity: 100%
[8]
  inhibition: -5.98%
[9]
  inhibition: -0.431%
[10]
  residual activity: 78%
[11]
  residual activity: 94%
[12]
  residual activity: 100%
[13]
  residual activity: 100%
[14]
  residual activity: 32%
[15]
  residual activity: 92%
[16]
  residual activity: 100%
[17]
  residual activity: 100%
[18]
  residual activity: 100%
[19]
  residual activity: 49%
[20]
  residual activity: 95%
[21]
  inhibition: 7.34%
[22]
  residual activity: 92%
[23]
  residual activity: 100%
[24]
  residual activity: 84%
[25]
  residual activity: 100%
[26]
  residual activity: 100%
[27]
  residual activity: 87%
[28]
  residual activity: 100%
[29]
  residual activity: 100%
[30]
  residual activity: 72%
[31]
  residual activity: 100%
[32]
  residual activity: 98%
[33]
  residual activity: 100%
[34]
  residual activity: 96%
[35]
  residual activity: 100%
[36]
  residual activity: 76%
[37]
  residual activity: 100%
[38]
  inhibition: 5.25%
[39]
  residual activity: 66%
[40]
  residual activity: 100%
[41]
  residual activity: 100%
[42]
  residual activity: 100%
[43]
  residual activity: 100%

## Cc1c(NC(=O)c2cc(C(N)=O)nc3cc(F)ccc23)c(C(F)(F)F)nn1Cc1ccc(C#N)cc1 [BAY-876]
[1]
  residual activity: 90%
[2]
  residual activity: 53%
[3]
  residual activity: 74%
[4]
  residual activity: 100%
[5]
  residual activity: 100%
[6]
  residual activity: 80%
[7]
  residual activity: 99%
[8]
  inhibition: -8.82%
[9]
  inhibition: -0.383%
[10]
  residual activity: 88%
[11]
  residual activity: 85%
[12]
  residual activity: 81%
[13]
  residual activity: 100%
[14]
  residual activity: 85%
[15]
  residual activity: 69%
[16]
  residual activity: 85%
[17]
  residual activity: 97%
[18]
  residual activity: 81%
[19]
  residual activity: 70%
[20]
  residual activity: 80%
[21]
  inhibition: 5.66%
[22]
  residual activity: 73%
[23]
  residual activity: 92%
[24]
  residual activity: 90%
[25]
  residual activity: 78%
[26]
  residual activity: 87%
[27]
  residual activity: 90%
[28]
  residual activity: 92%
[29]
  residual activity: 59%
[30]
  residual activity: 77%
[31]
  residual activity: 76%
[32]
  residual activity: 90%
[33]
  residual activity: 89%
[34]
  residual activity: 92%
[35]
  residual activity: 84%
[36]
  residual activity: 100%
[37]
  residual activity: 97%
[38]
  inhibition: -5.75%
[39]
  residual activity: 66%
[40]
  residual activity: 94%
[41]
  residual activity: 100%
[42]
  residual activity: 100%
[43]
  residual activity: 88%
